Data: US8741836B2, “Polypeptides” (Novo Nordisk A/S, priority 2011, dated 2014)
Starred links: 1 amine or outer side, 2 acyl side, 3 side chain; linkers in the order of their positions; H or OH if unused. Positions of bridges follow the written chain, without caps; N, C: chain ends. Residues, ends and D or L forms follow the SMILES beside them. *: point of attachment. C20 diacid = O=C(O)CCCCCCCCCCCCCCCCCCC(=O)*; C18 diacid = O=C(O)CCCCCCCCCCCCCCCCC(=O)*; γGlu = O=C(O)[C@H](CCC(=O)[*:2])N[*:1]

Experiment: Assay (III) ThT fibrillation assay for physical stability
Assay type: physicochemical
Conditions: pH 4.0
Method in brief: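 Freshly prepared, pH-adjusted formulations with 1 μM ThT incubated at 37 °C under 960 rpm orbital shaking (1 mm), fluorescence (ex 444, em 485 nm) read every 20 min. […] Peptide content before and after measured by reverse-phase HPLC against pramlintide standard.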

ThT pH 4.0 lag time (physical stability in fibrillogenesis assay) | Structure (SMILES)
>45 h | CC[C@H](C)[C@H](NC(=O)[C@@H]1CCCN1C(=O)CNC(=O)[C@H](Cc1ccccc1)NC(=O)[C@H](CC(N)=O)NC(=O)[C@H](CC(N)=O)NC(=O)[C@H](CO)NC(=O)[C@H](CO)NC(=O)[C@H](Cc1c[nH]cn1)NC(=O)[C@H](Cc1cnc[nH]1)NC(=O)[C@H](CC(C)C)NC(=O)[C@H](Cc1ccccc1)NC(=O)[C@H](CCC(=O)O)NC(=O)[C@H](C)NC(=O)[C@H](CC(C)C)NC(=O)[C@H](CCCNC(=N)N)NC(=O)[C@H](CCC(N)=O)NC(=O)[C@@H](NC(=O)[C@H](C)NC(=O)[C@@H]1CSSC[C@H](NC(=O)[C@H](CCCCN)NC(=O)CC[C@H](NC(=O)CCCCCCCCCCCCCCCCCCC(=O)O)C(=O)O)C(=O)N[C@@H](CC(N)=O)C(=O)N[C@@H]([C@@H](C)O)C(=O)N[C@@H](C)C(=O)N[C@@H]([C@@H](C)O)C(=O)N1)[C@@H](C)O)C(=O)N[C@@H](CC(C)C)C(=O)N1CCC[C@H]1C(=O)N1CCC[C@H]1C(=O)N[C@H](C(=O)N[C@@H](CC(N)=O)C(=O)N[C@H](C(=O)NCC(=O)N[C@@H](CO)C(=O)N[C@@H](CC(N)=O)C(=O)N[C@H](C(=O)N1CCC[C@H]1C(N)=O)[C@@H](C)O)C(C)C)[C@@H](C)O [Example 52, N-alpha-[(S)-4-Carboxy-4-(19-carboxynonadecanoylamino)butyryl]-[Glu14,His17,Pro37]-pramlintide] ({C20 diacid-γGlu}-KCNTATCATQRLAEFLHHSSNNFGPILPPTNVGSNTP-NH2; disulfide 2-7)

Same assay, conditions: pH 4.0, ThT fibrillation assay

Structure (SMILES) | ThT pH 4.0 lag time
CC[C@H](C)[C@H](NC(=O)[C@@H]1CCCN1C(=O)CNC(=O)[C@H](Cc1ccccc1)NC(=O)[C@H](CC(N)=O)NC(=O)[C@H](CC(N)=O)NC(=O)[C@H](CO)NC(=O)[C@H](CO)NC(=O)[C@H](Cc1c[nH]cn1)NC(=O)[C@H](CCCNC(=N)N)NC(=O)[C@H](CC(C)C)NC(=O)[C@H](Cc1ccccc1)NC(=O)[C@H](CCC(=O)O)NC(=O)[C@H](C)NC(=O)[C@H](CC(C)C)NC(=O)[C@H](CCCNC(=N)N)NC(=O)[C@H](CCC(N)=O)NC(=O)[C@@H](NC(=O)[C@H](C)NC(=O)[C@@H]1CSSC[C@H](NC(=O)[C@H](CCCCN)NC(=O)CC[C@H](NC(=O)CCCCCCCCCCCCCCCCC(=O)O)C(=O)O)C(=O)N[C@@H](CC(N)=O)C(=O)N[C@@H]([C@@H](C)O)C(=O)N[C@@H](C)C(=O)N[C@@H]([C@@H](C)O)C(=O)N1)[C@@H](C)O)C(=O)N[C@@H](CC(C)C)C(=O)N1CCC[C@H]1C(=O)N1CCC[C@H]1C(=O)N[C@H](C(=O)N[C@@H](CC(N)=O)C(=O)N[C@H](C(=O)NCC(=O)N[C@@H](CO)C(=O)N[C@@H](Cc1c[nH]cn1)C(=O)N[C@H](C(=O)N[C@@H](Cc1ccc(O)cc1)C(N)=O)[C@@H](C)O)C(C)C)[C@@H](C)O [Example 61, N-alpha-[(S)-4-Carboxy-4-(17-carboxyheptadecanoylamino)butyryl]-[Glu14,Arg17,His35]-pramlintide] ({C18 diacid-γGlu}-KCNTATCATQRLAEFLRHSSNNFGPILPPTNVGSHTY-NH2; disulfide 2-7) | >45 h
CC[C@H](C)[C@H](NC(=O)[C@@H]1CCCN1C(=O)CNC(=O)[C@H](Cc1ccccc1)NC(=O)[C@H](CC(N)=O)NC(=O)[C@H](CC(N)=O)NC(=O)[C@H](CO)NC(=O)[C@H](CO)NC(=O)[C@H](CCCNC(=N)N)NC(=O)[C@H](Cc1c[nH]cn1)NC(=O)[C@H](CC(C)C)NC(=O)[C@H](Cc1ccccc1)NC(=O)[C@H](CCC(=O)O)NC(=O)[C@H](C)NC(=O)[C@H](CC(C)C)NC(=O)[C@H](CCCNC(=N)N)NC(=O)[C@H](CCC(N)=O)NC(=O)[C@@H](NC(=O)[C@H](C)NC(=O)[C@@H]1CSSC[C@H](NC(=O)[C@H](Cc2c[nH]cn2)NC(=O)CC[C@H](NC(=O)CCCCCCCCCCCCCCCCCCC(=O)O)C(=O)O)C(=O)N[C@@H](CC(N)=O)C(=O)N[C@@H]([C@@H](C)O)C(=O)N[C@@H](C)C(=O)N[C@@H]([C@@H](C)O)C(=O)N1)[C@@H](C)O)C(=O)N[C@@H](CC(C)C)C(=O)N1CCC[C@H]1C(=O)N1CCC[C@H]1C(=O)N[C@H](C(=O)N[C@@H](CC(N)=O)C(=O)N[C@H](C(=O)NCC(=O)N[C@@H](CO)C(=O)N[C@@H](Cc1c[nH]cn1)C(=O)N[C@H](C(=O)N[C@@H](Cc1ccc(O)cc1)C(N)=O)[C@@H](C)O)C(C)C)[C@@H](C)O [Example 77, N-alpha-[(S)-4-Carboxy-4-(19-carboxynonadecanoylamino)butyryl]-[His1,Glu14,His17,Arg18,His35]-pramlintide] ({C20 diacid-γGlu}-HCNTATCATQRLAEFLHRSSNNFGPILPPTNVGSHTY-NH2; disulfide 2-7 (inferred)) | >45 h
CC[C@H](C)[C@H](NC(=O)[C@@H]1CCCN1C(=O)CNC(=O)[C@H](Cc1ccccc1)NC(=O)[C@H](CC(N)=O)NC(=O)[C@H](CC(N)=O)NC(=O)[C@H](CO)NC(=O)[C@H](CO)NC(=O)[C@H](Cc1c[nH]cn1)NC(=O)[C@H](Cc1c[nH]cn1)NC(=O)[C@H](CC(C)C)NC(=O)[C@H](Cc1ccccc1)NC(=O)[C@H](CCC(=O)O)NC(=O)[C@H](C)NC(=O)[C@H](CC(C)C)NC(=O)[C@H](CCCNC(=N)N)NC(=O)[C@H](CCC(N)=O)NC(=O)[C@@H](NC(=O)[C@H](C)NC(=O)[C@@H]1CSSC[C@H](NC(=O)[C@H](CCCCN)NC(=O)[C@H](Cc2c[nH]cn2)NC(=O)CC[C@H](NC(=O)CCCCCCCCCCCCCCCCC(=O)O)C(=O)O)C(=O)N[C@@H](CC(N)=O)C(=O)N[C@@H]([C@@H](C)O)C(=O)N[C@@H](C)C(=O)N[C@@H]([C@@H](C)O)C(=O)N1)[C@@H](C)O)C(=O)N[C@@H](CC(C)C)C(=O)N1CCC[C@H]1C(=O)N1CCC[C@H]1C(=O)N[C@H](C(=O)N[C@@H](CC(N)=O)C(=O)N[C@H](C(=O)NCC(=O)N[C@@H](CO)C(=O)N[C@@H](Cc1c[nH]cn1)C(=O)N[C@H](C(=O)N[C@@H](Cc1ccc(O)cc1)C(N)=O)[C@@H](C)O)C(C)C)[C@@H](C)O [Example 70, N-alpha-[(S)-4-Carboxy-4-(17-carboxyheptadecanoylamino)butyryl]-His-[Glu14,His17,His35]-pramlintide] ({C18 diacid-γGlu}-HKCNTATCATQRLAEFLHHSSNNFGPILPPTNVGSHTY-NH2; disulfide 3-8 (inferred)) | >45 h

Now from value to compound:

ThT pH 4.0 lag time | Structure (SMILES)
>45 h | CC[C@H](C)[C@H](NC(=O)[C@@H]1CCCN1C(=O)CNC(=O)[C@H](Cc1ccccc1)NC(=O)[C@H](CC(N)=O)NC(=O)[C@H](CO)NC(=O)[C@H](CO)NC(=O)[C@H](CO)NC(=O)[C@H](Cc1c[nH]cn1)NC(=O)[C@H](CCCNC(=N)N)NC(=O)[C@H](CC(C)C)NC(=O)[C@H](Cc1ccccc1)NC(=O)[C@H](CCC(=O)O)NC(=O)[C@H](C)NC(=O)[C@H](CC(C)C)NC(=O)[C@H](CCCNC(=N)N)NC(=O)[C@H](CCC(N)=O)NC(=O)[C@@H](NC(=O)[C@H](C)NC(=O)[C@@H]1CSSC[C@H](NC(=O)[C@H](Cc2c[nH]cn2)NC(=O)CC[C@H](NC(=O)CCCCCCCCCCCCCCCCCCC(=O)O)C(=O)O)C(=O)N[C@@H](CC(N)=O)C(=O)N[C@@H]([C@@H](C)O)C(=O)N[C@@H](C)C(=O)N[C@@H]([C@@H](C)O)C(=O)N1)[C@@H](C)O)C(=O)N[C@@H](CC(C)C)C(=O)N[C@@H](CO)C(=O)N[C@@H](CO)C(=O)N[C@H](C(=O)N[C@@H](CC(N)=O)C(=O)N[C@H](C(=O)NCC(=O)N[C@@H](CO)C(=O)N[C@@H](Cc1c[nH]cn1)C(=O)N[C@H](C(=O)N[C@@H](Cc1ccc(O)cc1)C(N)=O)[C@@H](C)O)C(C)C)[C@@H](C)O [Example 111, N-alpha-[(S)-4-Carboxy-4-(19-carboxynonadecanoylamino)butyryl]-[His1,Glu14,Arg17,Ser21,Ser28,Ser29,His35]-pramlintide] ({C20 diacid-γGlu}-HCNTATCATQRLAEFLRHSSSNFGPILSSTNVGSHTY-NH2; disulfide 2-7)
>45 h | CC[C@H](C)[C@H](NC(=O)[C@@H]1CCCN1C(=O)CNC(=O)[C@H](Cc1ccccc1)NC(=O)[C@H](CC(N)=O)NC(=O)[C@H](CC(N)=O)NC(=O)[C@H](CO)NC(=O)[C@H](CO)NC(=O)[C@H](Cc1c[nH]cn1)NC(=O)[C@H](Cc1c[nH]cn1)NC(=O)[C@H](CC(C)C)NC(=O)[C@H](Cc1ccccc1)NC(=O)[C@H](CCC(=O)O)NC(=O)[C@H](C)NC(=O)[C@H](CC(C)C)NC(=O)[C@H](CCCNC(=N)N)NC(=O)[C@H](CCC(N)=O)NC(=O)[C@@H](NC(=O)[C@H](C)NC(=O)[C@@H]1CSSC[C@H](NC(=O)[C@H](CCCCN)NC(=O)[C@H](CO)NC(=O)CC[C@H](NC(=O)CCCCCCCCCCCCCCCCCCC(=O)O)C(=O)O)C(=O)N[C@@H](CC(N)=O)C(=O)N[C@@H]([C@@H](C)O)C(=O)N[C@@H](C)C(=O)N[C@@H]([C@@H](C)O)C(=O)N1)[C@@H](C)O)C(=O)N[C@@H](CC(C)C)C(=O)N1CCC[C@H]1C(=O)N1CCC[C@H]1C(=O)N[C@H](C(=O)N[C@@H](CC(N)=O)C(=O)N[C@H](C(=O)NCC(=O)N[C@@H](CO)C(=O)N[C@@H](Cc1c[nH]cn1)C(=O)N[C@H](C(=O)N[C@@H](Cc1ccc(O)cc1)C(N)=O)[C@@H](C)O)C(C)C)[C@@H](C)O [Example 85, N-alpha-[(S)-4-Carboxy-4-(19-carboxynonadecanoylamino)butyryl]-Ser-[Glu14,His17,His35]-pramlintide] ({C20 diacid-γGlu}-SKCNTATCATQRLAEFLHHSSNNFGPILPPTNVGSHTY-NH2; disulfide 3-8)
